Data taken from ChEMBL document CHEMBL1134625 (J Med Chem, 2001).

Key:
[1] = target: Voltage-gated L-type calcium channel (Homo sapiens, UniProt Q13936+Q13698+Q01668+O60840); type: protein assay
D(1B) dopamine receptor = D(1B) dopamine receptor (Homo sapiens, UniProt P21918)
[2] = target: 5-hydroxytryptamine receptor 2A (Homo sapiens, UniProt P28223)
[3] = target: T1, Adrenergic receptor alpha-1 (Homo sapiens, UniProt P35348+P25100+P35368); type: protein assay
T1 sequence (P35348 whole entry): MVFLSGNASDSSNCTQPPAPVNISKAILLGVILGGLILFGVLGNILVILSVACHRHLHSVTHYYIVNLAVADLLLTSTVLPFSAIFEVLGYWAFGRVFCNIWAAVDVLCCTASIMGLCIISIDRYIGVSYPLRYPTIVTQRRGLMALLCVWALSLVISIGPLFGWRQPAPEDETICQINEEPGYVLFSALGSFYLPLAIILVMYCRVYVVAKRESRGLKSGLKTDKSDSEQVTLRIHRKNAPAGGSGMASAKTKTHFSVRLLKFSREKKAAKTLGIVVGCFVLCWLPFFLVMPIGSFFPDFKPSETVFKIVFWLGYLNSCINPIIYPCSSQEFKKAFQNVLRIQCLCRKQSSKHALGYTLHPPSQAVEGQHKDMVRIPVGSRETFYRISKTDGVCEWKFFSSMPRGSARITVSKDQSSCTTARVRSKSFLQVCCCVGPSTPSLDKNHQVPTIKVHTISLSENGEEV
T1 sequence (P25100 whole entry): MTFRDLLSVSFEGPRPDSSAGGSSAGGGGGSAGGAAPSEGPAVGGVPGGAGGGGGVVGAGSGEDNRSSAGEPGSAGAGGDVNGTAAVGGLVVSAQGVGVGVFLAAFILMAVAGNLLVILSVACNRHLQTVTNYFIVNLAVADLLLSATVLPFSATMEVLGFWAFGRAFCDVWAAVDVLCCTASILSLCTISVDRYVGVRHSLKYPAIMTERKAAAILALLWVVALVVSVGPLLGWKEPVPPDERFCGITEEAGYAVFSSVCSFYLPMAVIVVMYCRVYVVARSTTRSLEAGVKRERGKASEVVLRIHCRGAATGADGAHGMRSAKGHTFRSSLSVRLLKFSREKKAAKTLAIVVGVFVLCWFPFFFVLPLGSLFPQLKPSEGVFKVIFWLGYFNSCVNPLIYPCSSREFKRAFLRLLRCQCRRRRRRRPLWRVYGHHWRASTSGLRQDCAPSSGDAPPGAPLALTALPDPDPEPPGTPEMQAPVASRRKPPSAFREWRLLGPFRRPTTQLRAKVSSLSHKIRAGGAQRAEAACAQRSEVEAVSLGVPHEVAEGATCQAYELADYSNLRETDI
T1 sequence (P35368 whole entry): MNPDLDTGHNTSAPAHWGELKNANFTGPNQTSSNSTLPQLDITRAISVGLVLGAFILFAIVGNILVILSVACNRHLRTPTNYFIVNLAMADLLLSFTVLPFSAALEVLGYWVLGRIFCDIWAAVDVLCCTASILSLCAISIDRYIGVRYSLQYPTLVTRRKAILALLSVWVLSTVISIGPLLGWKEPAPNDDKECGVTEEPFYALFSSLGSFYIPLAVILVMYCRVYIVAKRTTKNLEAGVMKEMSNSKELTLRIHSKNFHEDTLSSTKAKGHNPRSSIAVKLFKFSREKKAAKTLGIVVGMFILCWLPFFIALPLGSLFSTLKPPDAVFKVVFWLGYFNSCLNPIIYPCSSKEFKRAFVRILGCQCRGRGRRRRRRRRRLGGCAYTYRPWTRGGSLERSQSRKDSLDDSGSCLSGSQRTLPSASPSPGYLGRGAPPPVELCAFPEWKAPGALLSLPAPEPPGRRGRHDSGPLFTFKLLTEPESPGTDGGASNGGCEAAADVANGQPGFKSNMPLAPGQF

[4] = target: 5-hydroxytryptamine receptor 5A (Homo sapiens, UniProt P47898)
[5] = target: 5-hydroxytryptamine receptor 6 (Homo sapiens, UniProt P50406)
Sequence of 5-hydroxytryptamine receptor 6 (P50406 whole entry): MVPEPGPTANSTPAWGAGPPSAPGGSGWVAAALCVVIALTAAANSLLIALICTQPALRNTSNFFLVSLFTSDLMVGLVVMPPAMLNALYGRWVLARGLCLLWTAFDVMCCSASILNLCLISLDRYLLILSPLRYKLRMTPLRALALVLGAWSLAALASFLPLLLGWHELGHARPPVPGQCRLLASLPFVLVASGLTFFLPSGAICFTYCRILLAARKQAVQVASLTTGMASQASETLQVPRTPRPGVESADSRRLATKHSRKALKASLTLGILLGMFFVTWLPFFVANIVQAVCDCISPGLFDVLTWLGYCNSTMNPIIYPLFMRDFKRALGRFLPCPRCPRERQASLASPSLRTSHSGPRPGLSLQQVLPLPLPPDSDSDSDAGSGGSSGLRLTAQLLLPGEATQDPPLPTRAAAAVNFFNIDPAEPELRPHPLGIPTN

D(4) dopamine receptor = target: T2, D(4) dopamine receptor (Homo sapiens, UniProt P21917)
T2 sequence (P21917 whole entry): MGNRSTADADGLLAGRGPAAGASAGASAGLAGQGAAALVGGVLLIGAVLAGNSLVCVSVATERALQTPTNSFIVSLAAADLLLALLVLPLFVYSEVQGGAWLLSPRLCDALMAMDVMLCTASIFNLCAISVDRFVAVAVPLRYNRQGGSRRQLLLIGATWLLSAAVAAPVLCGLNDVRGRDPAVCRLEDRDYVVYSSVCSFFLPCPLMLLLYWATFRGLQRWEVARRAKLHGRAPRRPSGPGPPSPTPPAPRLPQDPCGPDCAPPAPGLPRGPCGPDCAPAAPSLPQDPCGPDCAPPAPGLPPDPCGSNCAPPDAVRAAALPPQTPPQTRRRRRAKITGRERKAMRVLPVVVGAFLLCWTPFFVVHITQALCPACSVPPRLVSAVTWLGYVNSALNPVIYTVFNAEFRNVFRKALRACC

D(1A) dopamine receptor = D(1A) dopamine receptor (Homo sapiens, UniProt P21728)
Sequence of D(1A) dopamine receptor (P21728 whole entry): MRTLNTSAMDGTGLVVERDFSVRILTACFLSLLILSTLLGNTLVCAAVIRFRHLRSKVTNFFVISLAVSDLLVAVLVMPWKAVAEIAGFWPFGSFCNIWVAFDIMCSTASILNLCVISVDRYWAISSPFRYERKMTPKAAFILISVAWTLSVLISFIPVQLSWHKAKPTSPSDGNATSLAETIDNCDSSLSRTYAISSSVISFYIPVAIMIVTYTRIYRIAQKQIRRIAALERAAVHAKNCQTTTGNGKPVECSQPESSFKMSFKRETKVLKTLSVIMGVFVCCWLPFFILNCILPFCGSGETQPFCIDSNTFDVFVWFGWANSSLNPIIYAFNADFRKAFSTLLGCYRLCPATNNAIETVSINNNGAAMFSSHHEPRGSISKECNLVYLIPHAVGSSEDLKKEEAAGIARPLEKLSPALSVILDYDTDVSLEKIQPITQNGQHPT

[6] = target: 5-hydroxytryptamine receptor 7 (Homo sapiens, UniProt P34969)
Sequence of 5-hydroxytryptamine receptor 7 (P34969 whole entry): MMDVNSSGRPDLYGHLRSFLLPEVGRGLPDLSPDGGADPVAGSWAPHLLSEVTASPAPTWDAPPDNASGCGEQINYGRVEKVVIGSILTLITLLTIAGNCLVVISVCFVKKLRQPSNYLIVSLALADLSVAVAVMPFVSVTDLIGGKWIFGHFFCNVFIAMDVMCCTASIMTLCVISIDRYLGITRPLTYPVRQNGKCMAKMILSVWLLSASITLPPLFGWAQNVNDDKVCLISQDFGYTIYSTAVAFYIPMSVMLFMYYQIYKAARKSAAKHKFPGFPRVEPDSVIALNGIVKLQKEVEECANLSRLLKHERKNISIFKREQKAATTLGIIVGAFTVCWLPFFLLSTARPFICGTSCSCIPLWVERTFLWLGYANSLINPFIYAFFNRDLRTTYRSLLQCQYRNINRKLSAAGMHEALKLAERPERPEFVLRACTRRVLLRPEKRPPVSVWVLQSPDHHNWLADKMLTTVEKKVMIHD

[7] = target: Sodium-dependent dopamine transporter (Homo sapiens, UniProt Q01959)
Sequence of Sodium-dependent dopamine transporter (Q01959 whole entry): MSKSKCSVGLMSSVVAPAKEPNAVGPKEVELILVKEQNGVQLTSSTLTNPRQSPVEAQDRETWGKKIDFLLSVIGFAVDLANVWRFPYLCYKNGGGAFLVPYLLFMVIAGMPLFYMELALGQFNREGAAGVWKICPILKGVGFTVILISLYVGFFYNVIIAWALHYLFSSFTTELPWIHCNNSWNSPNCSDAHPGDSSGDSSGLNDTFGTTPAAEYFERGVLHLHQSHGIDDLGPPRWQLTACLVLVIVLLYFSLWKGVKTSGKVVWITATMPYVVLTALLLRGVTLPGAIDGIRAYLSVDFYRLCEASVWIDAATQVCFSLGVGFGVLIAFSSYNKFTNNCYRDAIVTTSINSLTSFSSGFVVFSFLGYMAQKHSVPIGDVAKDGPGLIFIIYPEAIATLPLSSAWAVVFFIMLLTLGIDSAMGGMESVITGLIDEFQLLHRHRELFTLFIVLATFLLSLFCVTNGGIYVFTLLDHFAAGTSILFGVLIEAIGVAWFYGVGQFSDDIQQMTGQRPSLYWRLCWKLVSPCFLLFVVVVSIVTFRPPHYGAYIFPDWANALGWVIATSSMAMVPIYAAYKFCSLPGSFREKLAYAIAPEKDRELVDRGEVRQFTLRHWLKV

Adenosine receptor A3 = target: T3, Adenosine receptor A3 (Homo sapiens, UniProt P0DMS8)
T3 sequence (P0DMS8 whole entry): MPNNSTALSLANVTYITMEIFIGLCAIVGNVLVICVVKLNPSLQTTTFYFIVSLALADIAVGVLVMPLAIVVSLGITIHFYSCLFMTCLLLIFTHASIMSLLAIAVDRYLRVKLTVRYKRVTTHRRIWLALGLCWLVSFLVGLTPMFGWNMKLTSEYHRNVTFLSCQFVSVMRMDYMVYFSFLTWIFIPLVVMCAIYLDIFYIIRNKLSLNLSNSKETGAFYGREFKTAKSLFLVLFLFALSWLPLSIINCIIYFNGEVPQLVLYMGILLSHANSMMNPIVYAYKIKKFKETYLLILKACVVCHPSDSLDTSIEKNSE

D(2) dopamine receptor = D(2) dopamine receptor (Homo sapiens, UniProt P14416)
Sequence of D(2) dopamine receptor (P14416 whole entry): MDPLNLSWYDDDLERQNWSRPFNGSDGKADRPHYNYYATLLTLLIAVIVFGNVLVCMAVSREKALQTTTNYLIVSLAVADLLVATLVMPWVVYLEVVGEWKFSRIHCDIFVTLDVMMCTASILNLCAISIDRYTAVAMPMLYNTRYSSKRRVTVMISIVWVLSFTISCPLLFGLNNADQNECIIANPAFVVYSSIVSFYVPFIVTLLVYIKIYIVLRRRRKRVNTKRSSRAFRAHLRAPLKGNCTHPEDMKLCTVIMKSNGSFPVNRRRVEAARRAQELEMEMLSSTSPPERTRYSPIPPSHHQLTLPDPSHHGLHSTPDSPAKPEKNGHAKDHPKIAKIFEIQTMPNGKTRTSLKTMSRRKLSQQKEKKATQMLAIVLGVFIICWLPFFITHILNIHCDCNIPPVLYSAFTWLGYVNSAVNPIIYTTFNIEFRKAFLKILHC

Histamine H1 receptor = Histamine H1 receptor (Homo sapiens, UniProt P35367)
Sequence of Histamine H1 receptor (P35367 whole entry): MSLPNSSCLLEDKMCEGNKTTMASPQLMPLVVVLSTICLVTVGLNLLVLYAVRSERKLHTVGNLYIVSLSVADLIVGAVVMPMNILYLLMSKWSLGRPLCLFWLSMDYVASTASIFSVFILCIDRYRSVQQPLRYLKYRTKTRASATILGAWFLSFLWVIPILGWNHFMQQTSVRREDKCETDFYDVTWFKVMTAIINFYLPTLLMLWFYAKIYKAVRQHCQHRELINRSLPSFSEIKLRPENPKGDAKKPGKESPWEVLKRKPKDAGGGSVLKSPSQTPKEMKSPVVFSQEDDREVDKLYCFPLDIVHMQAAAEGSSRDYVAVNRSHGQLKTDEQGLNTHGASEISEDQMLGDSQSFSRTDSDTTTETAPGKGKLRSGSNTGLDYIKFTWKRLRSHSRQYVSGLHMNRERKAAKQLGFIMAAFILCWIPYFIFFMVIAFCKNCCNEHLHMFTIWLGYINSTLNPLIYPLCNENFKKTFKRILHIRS

Histamine H2 receptor = Histamine H2 receptor (Homo sapiens, UniProt P25021)
Sequence of Histamine H2 receptor (P25021 whole entry): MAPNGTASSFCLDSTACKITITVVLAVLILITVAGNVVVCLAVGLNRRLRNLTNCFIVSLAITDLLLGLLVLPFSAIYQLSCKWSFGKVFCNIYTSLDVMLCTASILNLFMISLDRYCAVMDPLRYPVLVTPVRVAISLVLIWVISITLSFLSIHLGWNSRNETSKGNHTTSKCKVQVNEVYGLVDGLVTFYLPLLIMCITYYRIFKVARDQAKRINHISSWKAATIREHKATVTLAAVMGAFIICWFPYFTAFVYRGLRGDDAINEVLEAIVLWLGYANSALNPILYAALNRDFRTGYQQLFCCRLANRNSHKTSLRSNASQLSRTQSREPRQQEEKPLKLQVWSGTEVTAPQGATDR

D(3) dopamine receptor = D(3) dopamine receptor (Homo sapiens, UniProt P35462)
Sequence of D(3) dopamine receptor (P35462 whole entry): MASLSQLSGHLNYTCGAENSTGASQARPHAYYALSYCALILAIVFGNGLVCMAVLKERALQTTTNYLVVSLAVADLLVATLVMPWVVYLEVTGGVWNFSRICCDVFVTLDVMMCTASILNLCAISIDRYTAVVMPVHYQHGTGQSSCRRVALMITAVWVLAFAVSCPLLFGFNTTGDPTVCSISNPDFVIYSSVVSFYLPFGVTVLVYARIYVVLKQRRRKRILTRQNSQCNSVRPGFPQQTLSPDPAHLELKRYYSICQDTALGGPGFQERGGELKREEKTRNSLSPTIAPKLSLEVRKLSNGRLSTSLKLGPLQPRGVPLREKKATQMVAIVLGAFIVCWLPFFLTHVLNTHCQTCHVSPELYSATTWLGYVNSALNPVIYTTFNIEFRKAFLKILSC

[8] = target: T4, 5-hydroxytryptamine receptor 1A (Homo sapiens, UniProt P08908)
T4 sequence (P08908 whole entry): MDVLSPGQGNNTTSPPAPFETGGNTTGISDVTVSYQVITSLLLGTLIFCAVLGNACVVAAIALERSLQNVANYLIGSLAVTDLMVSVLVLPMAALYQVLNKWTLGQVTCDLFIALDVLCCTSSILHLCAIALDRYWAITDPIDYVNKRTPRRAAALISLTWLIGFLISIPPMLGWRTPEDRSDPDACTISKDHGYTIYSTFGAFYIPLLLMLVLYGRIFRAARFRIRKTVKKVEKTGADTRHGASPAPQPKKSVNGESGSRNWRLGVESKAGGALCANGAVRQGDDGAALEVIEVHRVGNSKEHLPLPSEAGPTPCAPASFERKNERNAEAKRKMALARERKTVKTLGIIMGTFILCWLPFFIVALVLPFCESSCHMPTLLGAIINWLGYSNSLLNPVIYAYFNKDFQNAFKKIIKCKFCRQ

[9] = target: T5, 5-hydroxytryptamine receptor 2C (Homo sapiens, UniProt P28335)
T5 sequence (P28335 whole entry): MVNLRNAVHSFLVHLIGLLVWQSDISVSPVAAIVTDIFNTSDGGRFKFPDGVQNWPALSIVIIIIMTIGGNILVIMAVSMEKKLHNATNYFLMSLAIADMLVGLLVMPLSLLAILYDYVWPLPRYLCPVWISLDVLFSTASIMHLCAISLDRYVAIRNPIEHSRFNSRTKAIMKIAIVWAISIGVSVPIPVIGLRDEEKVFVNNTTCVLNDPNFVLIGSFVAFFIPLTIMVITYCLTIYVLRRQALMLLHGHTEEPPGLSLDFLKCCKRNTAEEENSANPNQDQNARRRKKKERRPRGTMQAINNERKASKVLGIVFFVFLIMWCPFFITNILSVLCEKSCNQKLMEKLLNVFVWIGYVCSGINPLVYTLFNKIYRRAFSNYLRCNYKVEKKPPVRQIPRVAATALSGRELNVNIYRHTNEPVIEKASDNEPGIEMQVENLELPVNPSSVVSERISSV

Substance-K receptor = Substance-K receptor (Homo sapiens, UniProt P21452)
Substance-P receptor = Substance-P receptor (Homo sapiens, UniProt P25103)
Adenosine receptor A1 = Adenosine receptor A1 (Homo sapiens, UniProt P30542)
Sequence of Adenosine receptor A1 (P30542 whole entry): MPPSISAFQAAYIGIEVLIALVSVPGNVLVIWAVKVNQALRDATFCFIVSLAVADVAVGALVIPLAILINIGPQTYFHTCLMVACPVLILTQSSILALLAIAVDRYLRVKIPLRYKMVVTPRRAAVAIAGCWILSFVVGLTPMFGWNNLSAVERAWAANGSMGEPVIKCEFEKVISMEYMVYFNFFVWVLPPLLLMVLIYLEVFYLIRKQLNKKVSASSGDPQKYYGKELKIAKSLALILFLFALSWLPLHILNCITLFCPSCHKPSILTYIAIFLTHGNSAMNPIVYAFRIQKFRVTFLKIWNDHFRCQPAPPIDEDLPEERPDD

Sequence of D(1B) dopamine receptor (P21918 whole entry): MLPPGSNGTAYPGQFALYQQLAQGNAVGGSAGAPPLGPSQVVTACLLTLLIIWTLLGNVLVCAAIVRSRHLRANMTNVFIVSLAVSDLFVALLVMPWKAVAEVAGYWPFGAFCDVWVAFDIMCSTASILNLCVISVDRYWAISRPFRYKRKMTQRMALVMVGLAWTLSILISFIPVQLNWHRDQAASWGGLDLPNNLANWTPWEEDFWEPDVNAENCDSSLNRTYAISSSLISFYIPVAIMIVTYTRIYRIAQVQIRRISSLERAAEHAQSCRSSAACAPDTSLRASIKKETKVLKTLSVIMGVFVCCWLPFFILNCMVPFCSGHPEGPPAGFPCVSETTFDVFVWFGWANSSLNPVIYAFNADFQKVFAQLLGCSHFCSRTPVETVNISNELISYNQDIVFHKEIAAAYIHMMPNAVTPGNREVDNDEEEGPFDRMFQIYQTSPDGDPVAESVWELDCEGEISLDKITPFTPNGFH
Sequence of 5-hydroxytryptamine receptor 2A (P28223 whole entry): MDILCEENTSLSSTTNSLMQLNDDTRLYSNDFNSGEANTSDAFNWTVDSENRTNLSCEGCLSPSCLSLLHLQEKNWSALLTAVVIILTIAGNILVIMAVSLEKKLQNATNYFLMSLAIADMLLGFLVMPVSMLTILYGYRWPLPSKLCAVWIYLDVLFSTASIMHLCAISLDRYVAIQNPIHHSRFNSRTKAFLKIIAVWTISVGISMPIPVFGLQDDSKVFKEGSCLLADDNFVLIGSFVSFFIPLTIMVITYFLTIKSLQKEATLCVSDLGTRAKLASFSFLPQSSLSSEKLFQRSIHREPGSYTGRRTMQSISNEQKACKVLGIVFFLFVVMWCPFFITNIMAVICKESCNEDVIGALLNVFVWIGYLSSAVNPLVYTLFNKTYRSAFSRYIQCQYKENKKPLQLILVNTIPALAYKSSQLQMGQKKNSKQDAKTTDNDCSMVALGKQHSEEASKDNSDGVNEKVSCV

N#Cc1ccc(CCOC(=O)N2CCN(CCCC(c3ccc(F)cc3)c3ccc(F)cc3)CC2)cc1
IC50 [1]: 1720 nM | IC50 (D(1B) dopamine receptor): 988 nM | IC50 [2]: 715 nM | IC50 [3]: 1100 nM | IC50 [4]: 3380 nM | IC50 [5]: 2280 nM | IC50 (D(4) dopamine receptor): 776 nM | IC50 (D(1A) dopamine receptor): 1120 nM | IC50 [6]: 1440 nM | IC50 [7]: 996 nM | IC50 (Adenosine receptor A3): 3480 nM | IC50 (D(2) dopamine receptor): 2240 nM | IC50 (Histamine H1 receptor): 795 nM | IC50 (Histamine H2 receptor): 1030 nM | IC50 (D(3) dopamine receptor): 195 nM | IC50 [8]: 1020 nM

COc1ccc(CN2CCN(C(=O)CCn3cc(C)c4ccccc43)CC2)cc1OCc1ccccc1
IC50 [1]: 4840 nM | IC50 (Adenosine receptor A3): 3730 nM

CCOc1ccc(CCOC(=O)N2CCN(CCCc3ccccc3)CC2)cc1
IC50 [2]: 980 nM | IC50 [6]: 1430 nM | IC50 (Adenosine receptor A3): 4180 nM

O=C(OCCc1ccc(F)cc1)N1CCN(CCCC(c2ccc(F)cc2)c2ccc(F)cc2)CC1
IC50 [1]: 2730 nM | IC50 (D(1B) dopamine receptor): 1550 nM | IC50 [2]: 1060 nM | IC50 [3]: 1640 nM | IC50 [5]: 1530 nM | IC50 (D(4) dopamine receptor): 338 nM | IC50 [6]: 726 nM | IC50 [7]: 1650 nM | IC50 (Adenosine receptor A3): 4210 nM | IC50 (D(2) dopamine receptor): 2620 nM | IC50 (Histamine H1 receptor): 1280 nM | IC50 (Histamine H2 receptor): 1250 nM | IC50 [9]: 3450 nM | IC50 (D(3) dopamine receptor): 456 nM | IC50 [8]: 1140 nM

CCOc1ccc(CCNC(=O)N2CCN(CCCC(c3ccc(F)cc3)c3ccc(F)cc3)CC2)cc1
IC50 [1]: 860 nM | IC50 (D(1B) dopamine receptor): 1450 nM | IC50 [2]: 231 nM | IC50 [3]: 993 nM | IC50 [5]: 800 nM | IC50 (Substance-K receptor): 5180 nM | IC50 (D(1A) dopamine receptor): 967 nM | IC50 [6]: 2040 nM | IC50 [7]: 994 nM | IC50 (Substance-P receptor): 839 nM | IC50 (Adenosine receptor A3): 2460 nM | IC50 (D(2) dopamine receptor): 2890 nM | IC50 (Histamine H1 receptor): 1820 nM | IC50 (Histamine H2 receptor): 757 nM | IC50 [9]: 1420 nM | IC50 (D(3) dopamine receptor): 341 nM

O=C(NCCCn1c(=O)[nH]c2ccccc21)OCc1cc2c(cc1Cl)OCO2
IC50 (Adenosine receptor A3): 3330 nM | IC50 (Adenosine receptor A1): 344 nM

COc1ccc(SCCC(=O)N2CCN(Cc3cccc(Oc4ccc(Cl)cc4)c3)CC2)cc1
IC50 (Adenosine receptor A3): 3750 nM
